Source: PMC11167047 (Cell Death Discovery, 2024)

Assays:
Test in all cases: kinome screen (33PanQinase)
Format in all cases: biochemical
[1] = target: T1, DCAMKL2 (Homo sapiens, UniProt Q8N568)
T1 construct: purchased Reaction Biology Europe GmbH (formerly ProQinase)
T1 sequence (Q8N568 1-766): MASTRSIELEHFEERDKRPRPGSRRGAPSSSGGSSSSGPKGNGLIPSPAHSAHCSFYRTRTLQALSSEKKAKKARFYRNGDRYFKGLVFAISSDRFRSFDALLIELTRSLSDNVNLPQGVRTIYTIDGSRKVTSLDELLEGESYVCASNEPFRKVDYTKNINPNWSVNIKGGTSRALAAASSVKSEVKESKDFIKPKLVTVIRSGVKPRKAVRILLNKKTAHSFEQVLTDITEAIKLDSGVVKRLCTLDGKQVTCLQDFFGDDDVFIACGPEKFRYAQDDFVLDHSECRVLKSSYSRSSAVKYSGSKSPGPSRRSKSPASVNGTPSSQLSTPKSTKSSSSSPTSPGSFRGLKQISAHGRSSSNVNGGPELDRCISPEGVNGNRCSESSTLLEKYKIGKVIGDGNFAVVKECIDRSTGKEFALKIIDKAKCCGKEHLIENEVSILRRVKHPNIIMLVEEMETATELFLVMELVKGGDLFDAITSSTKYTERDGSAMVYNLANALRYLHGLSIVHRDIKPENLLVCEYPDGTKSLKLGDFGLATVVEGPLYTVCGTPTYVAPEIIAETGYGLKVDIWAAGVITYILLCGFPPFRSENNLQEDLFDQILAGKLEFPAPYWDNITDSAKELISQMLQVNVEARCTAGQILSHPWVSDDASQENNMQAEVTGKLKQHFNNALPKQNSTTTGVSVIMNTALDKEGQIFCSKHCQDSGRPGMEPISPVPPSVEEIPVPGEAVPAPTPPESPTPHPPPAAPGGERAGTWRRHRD
Method: (§1) The Kinome Screening was performed by Reaction Biology Europe GmbH (http://reactionbiology.com; Freiburg i. Br., Germany).

[2] = target: T2, PIM3 (Homo sapiens, UniProt Q86V86)
T2 construct: purchased Reaction Biology Europe GmbH (formerly ProQinase)
Method: as §1

[3] = target: T3, ZAP70 (Homo sapiens, UniProt P43403)
T3 construct: purchased Reaction Biology Europe GmbH (formerly ProQinase)
T3 sequence (P43403 1-619): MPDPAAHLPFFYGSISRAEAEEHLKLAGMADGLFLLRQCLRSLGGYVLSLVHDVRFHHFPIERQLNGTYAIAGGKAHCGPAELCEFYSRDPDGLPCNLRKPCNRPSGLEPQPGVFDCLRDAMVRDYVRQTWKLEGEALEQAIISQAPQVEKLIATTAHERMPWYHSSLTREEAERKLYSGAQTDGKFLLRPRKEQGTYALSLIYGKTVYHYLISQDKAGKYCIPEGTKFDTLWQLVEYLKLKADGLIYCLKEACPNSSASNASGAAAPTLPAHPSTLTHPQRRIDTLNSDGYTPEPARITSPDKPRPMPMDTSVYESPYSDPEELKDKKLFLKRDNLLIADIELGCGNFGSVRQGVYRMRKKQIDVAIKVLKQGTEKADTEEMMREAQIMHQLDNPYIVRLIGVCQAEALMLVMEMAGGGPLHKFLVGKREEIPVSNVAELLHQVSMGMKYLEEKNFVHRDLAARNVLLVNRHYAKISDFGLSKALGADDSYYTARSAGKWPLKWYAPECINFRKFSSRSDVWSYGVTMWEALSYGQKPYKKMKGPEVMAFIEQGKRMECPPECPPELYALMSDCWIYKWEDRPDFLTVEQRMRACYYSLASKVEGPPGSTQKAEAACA
Method: as §1

[4] = target: T4, DMPK (Homo sapiens, UniProt Q09013)
T4 construct: purchased Reaction Biology Europe GmbH (formerly ProQinase)
T4 sequence (Q09013 1-629): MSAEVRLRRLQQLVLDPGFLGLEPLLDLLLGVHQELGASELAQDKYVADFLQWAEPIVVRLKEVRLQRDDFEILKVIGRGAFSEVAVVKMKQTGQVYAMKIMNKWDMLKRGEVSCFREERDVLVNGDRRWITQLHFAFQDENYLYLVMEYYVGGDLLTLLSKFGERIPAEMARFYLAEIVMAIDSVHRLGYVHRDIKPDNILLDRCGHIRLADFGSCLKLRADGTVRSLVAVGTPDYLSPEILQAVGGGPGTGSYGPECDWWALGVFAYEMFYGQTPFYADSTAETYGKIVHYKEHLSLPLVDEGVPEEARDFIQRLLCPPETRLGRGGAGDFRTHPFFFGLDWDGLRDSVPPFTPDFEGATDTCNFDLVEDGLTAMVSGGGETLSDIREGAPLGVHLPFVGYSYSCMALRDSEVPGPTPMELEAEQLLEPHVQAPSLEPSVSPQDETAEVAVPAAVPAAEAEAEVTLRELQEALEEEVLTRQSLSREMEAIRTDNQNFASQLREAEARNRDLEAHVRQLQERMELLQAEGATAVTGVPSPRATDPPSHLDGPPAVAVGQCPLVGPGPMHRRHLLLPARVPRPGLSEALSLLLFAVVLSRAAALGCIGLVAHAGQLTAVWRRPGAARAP
Method: as §1

| Compound | residual kinase activity ([1]; 0.3 µM) | residual kinase activity ([1]; 3 µM) | residual kinase activity ([2]; 0.3 µM) | residual kinase activity ([2]; 3 µM) | residual kinase activity ([3]; 0.3 µM) | residual kinase activity ([3]; 3 µM) | residual kinase activity ([4]; 0.3 µM) | residual kinase activity ([4]; 3 µM) | residual kinase activity ([1]; 0.03 µM) | residual kinase activity ([2]; 0.03 µM) | residual kinase activity ([3]; 0.03 µM) | residual kinase activity ([4]; 0.03 µM) |
| --- | --- | --- | --- | --- | --- | --- | --- | --- | --- | --- | --- | --- |
| c1ccc(CNc2cc(-c3c[nH]c4ncccc34)ccn2)cc1 [meriolin 36] | 91 % of control | 81 % of control | 85 % of control | 46 % of control | 110 % of control | 85 % of control | 3 % of control | -2 % of control |  |  |  |  |
| COc1ccnc2[nH]cc(-c3cc(N)nc(N)c3)c12 [meriolin 16] | 85 % of control |  | 68 % of control |  | 83 % of control |  | 63 % of control |  | 92 % of control | 118 % of control | 95 % of control | 86 % of control |
